Source: patent publication US6956037B2, “Benzamide derivatives for the treatment of diseases mediated by cytokines” (AstraZeneca AB, priority 1998, dated 2005)

Experiments:
p38α = biological target: T1, p38α (Homo sapiens, UniProt Q16539); assay: In vitro enzyme assay, p38 kinase inhibition; format: biochemical; settings: read-out: IC50 against p38α
T1 construct: c-myc (N); 6His (N); made in house; host or cells: E. coli (PET vectors)
Method: The ability of compounds of the invention to inhibit the enzyme p38 kinase was assessed. Activity of test compounds against each of the p38α and p38β isoforms of the enzyme was determined. […]
Test compounds were solubilised in DMSO and 10 μl of a 1:10 diluted sample in ‘Kinase Buffer’ was added to a well in a Microtiter plate. […] The precipitated protein was phosphorylated by p38 kinase and test compounds were assessed for their ability to inhibit this phosphorylation. The plates were filtered using a Canberra Packard Unifilter and washed with 2% TCA, dried overnight and counted on a Top Count scintillation counter.
Test compounds were tested initially at a single dose and active compounds were retested to allow IC50 values to be determined.

[1] = system: TNFα production by human peripheral blood mononuclear cells; assay: PBMC test: inhibition of LPS-stimulated TNFα production; format: cell-based
Method: The ability of compounds of this invention to inhibit TNFα production was assessed by using human peripheral blood mononuclear cells which synthesise and secrete TNFα when stimulated with lipopolysaccharide.
Peripheral blood mononuclear cells (PBMC) were isolated from heparinised (10 units/ml heparin) human blood by density centrifugation (Lymphoprep™; Nycomed). Mononuclear cells were resuspended in culture medium [RPMI 1640 medium (Gibco) supplemented with 50 units/ml penicillin, 50 μg/ml streptomycin, 2 mM glutamine and 1% heat-inactivated human AB serum (Sigma H-1513)]. Compounds were solubilised in DMSO at a concentration of 50 mM, diluted 1:100 in culture medium and subsequently serial dilutions were made in culture medium containing 1% DMSO. PBMCs (2.4×10^5 cells in 160 μl culture medium) were incubated with 20 μl of varying concentrations of test compound (triplicate cultures) or 20 μl culture medium containing 1% DMSO (control wells) for 30 minutes at 37° C. in a humidified (5% CO2/95% air) incubator (Falcon 3072; 96 well flat-bottom tissue culture plates). […] TNFα levels were determined in each sample using a human TNFα ELISA (see WO92/10190 and Current Protocols in Molecular Biology, vol 2 by Frederick M/Ausbel et al., John Wiley and Sons Inc.). […]

[2] = system: TNFα production by human whole blood; assay: Human Whole Blood test: inhibition of LPS-stimulated TNFα production; format: cell-based
Method: The ability of the compounds of this invention to inhibit TNFα production was also assessed in a human whole blood assay. Human whole blood secretes TNFα when stimulated with LPS. This property of blood forms the basis of an assay which is used as a secondary test for compounds which profile as active in the PBMC test.
Heparinised (10 units/ml) human blood was obtained from volunteers. 160 μl whole blood were added to 96 well round-bottom plates (Corning 25850). Compounds were solubilised and serially diluted in RPMI 1640 medium (Gibco) supplemented with 50 units/ml penicillin 50 μg/ml streptomycin and 2 mM glutamine, as detailed above. 20 μl of each test concentration was added to appropriate wells (triplicate cultures). 20 μl of RPMI 1640 medium supplemented with antibiotics and glutamine was added to control wells. Plates were incubated for 30 minutes at 37° C. (humidified incubator), prior to addition of 20 μl LPS (final concentration 10 μg/ml). RPMI 1640 medium was added to control wells. Six “LPS alone” and four “medium alone” controls were included on each plate. A known TNFα synthesis/secretion inhibitor was included in each test. Plates were incubated for 6 hours at 37° C. (humidified incubator). […] TNFα levels were measured by ELISA (see WO92/10190 and Current Protocols in Molecular Biology, vol 2 by Frederick M. Ausbel et al., John Wiley and Sons Inc.). […]

T1 sequence (Q16539 whole entry): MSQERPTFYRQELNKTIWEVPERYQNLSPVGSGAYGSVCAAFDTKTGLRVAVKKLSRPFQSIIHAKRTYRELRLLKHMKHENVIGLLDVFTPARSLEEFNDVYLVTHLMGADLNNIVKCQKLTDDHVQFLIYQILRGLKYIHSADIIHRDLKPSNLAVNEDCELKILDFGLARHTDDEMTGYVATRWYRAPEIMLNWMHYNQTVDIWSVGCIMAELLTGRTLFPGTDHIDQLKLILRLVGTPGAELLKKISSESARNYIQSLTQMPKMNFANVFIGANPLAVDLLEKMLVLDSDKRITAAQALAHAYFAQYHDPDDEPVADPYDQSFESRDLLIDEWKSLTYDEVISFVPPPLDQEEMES

| melting point [°C] | Compound | further results |
| --- | --- | --- |
| > 300 | COc1ccc(C(=O)Nc2cc(NC(=O)c3cccc(NS(C)(=O)=O)c3)ccc2C)cc1OC [Example 1, N-[5-(3-methanesulphonylaminobenzamido)-2-methylphenyl]-3,4-dimethoxybenzamide] | – |
| 186 to 187 | COc1ccc(C(=O)Nc2cc(NC(=O)c3ccc(OCCCCl)cc3)ccc2C)cc1OC [Example 3, N-{5-[4-(3-chloropropoxy)benzamido]-2-methylphenyl}-3,4-dimethoxybenzamide] | – |
| 165 to 166 | COc1ccc(C(=O)Nc2cc(NC(=O)c3ccc(OCCN4CCCC4)cc3)ccc2C)cc1OC [Example 4, N-{5-[4-(2-pyrrolidin-1-ylethoxy)benzamido]-2-methylphenyl}-3,4-dimethoxybenzamide] | – |
| 148 to 149 | COc1ccc(C(=O)Nc2cc(NC(=O)c3ccc(OCCCN4CCOCC4)cc3)ccc2C)cc1OC [Example 5, Compound No. 3, N-{2-methyl-5-[4-(3-morpholinopropoxy)benzamido]phenyl}-3,4-dimethoxybenzamide] | – |
| – | Cc1ccc(NC(=O)c2cccc(N3CCOCC3)c2)cc1NC(=O)c1cccc(OCCN2CCCC2)c1 [Example 7, Compound No. 19, N-[2-methyl-5-(3-morpholinobenzamido)phenyl]-3-(2-pyrrolidin-1-ylethoxy)benzamide] | IC50 (p38α): ~100 nM; IC50 [1]: ~1000 nM; IC50 [2]: ~6000 nM |
| – | COCCOc1ccc(C(=O)Nc2cc(NC(=O)c3ccc(C#N)cc3)ccc2C)cc1 [Example 8, N-[5-(4-cyanobenzamido)-2-methylphenyl]-4-(2-methoxyethoxy)benzamide] | IC50 (p38α): ~100 nM; IC50 [1]: ~3000 nM |
| 206 to 207 | COc1ccc(C(=O)Nc2cc(NC(=O)c3cccc(OCC(=O)O)c3)ccc2C)cc1OC [Example 18, N-[5-(3-carboxymethoxybenzamido)-2-methylphenyl]-3,4-dimethoxybenzamide] | – |
| 164 to 165 | COc1ccc(C(=O)Nc2cc(NC(=O)c3ccc(N(C)CCCN(C)C)cc3)ccc2C)cc1OC [Example 20, N-{5-[4-(N-(3-dimethylaminopropyl)-N-methylamino)benzamido]-2-methylphenyl}-3,4-dimethoxybenzamide] | – |
| 162 to 166 | Cc1ccc(NC(=O)c2cccc(N3CCOCC3)c2)cc1NC(=O)c1cccc(OC2CCNCC2)c1 [Example 25, N-[2-methyl-5-(3-morpholinobenzamido)phenyl]-3-piperidin4-yloxybenzamide] | – |
| 168 to 169 | CCS(=O)(=O)Nc1cccc(C(=O)Nc2ccc(C)c(NC(=O)c3ccc(OC)c(OC)c3)c2)c1 [Example 26, N-{5-[3-(N-methylmethanesulphonylamino)benzamido]-2′-methylphenyl}-3,4-dimethoxybenzamide] | – |
| 239 to 240 | Cc1ccc(NC(=O)c2cccc(N(C)C)c2)cc1NC(=O)c1cccc(NS(C)(=O)=O)c1 [Example 27, N-[5-(3-dimethylaminobenzamido)-2-methylphenyl]-3-methanesulphonylaminobenzamide] | – |
| 239 to 240 | Cc1ccc(NC(=O)c2cccc(N(C)C)c2)cc1NC(=O)c1ccccc1NCCCN1CCOCC1 [Example 35, N-[5-(3-dimethylaminobenzamido)-2-methylphenyl]-2-(3-morpholinopropylamino)benzamide] | – |
| 178 to 179 | Cc1ccc(NC(=O)c2cccc(N(C)C)c2)cc1NC(=O)c1ccc(N(C)CCCN(C)C)cc1 [Example 36, N-[5-(3-dimethylaminobenzamido)-2-methylphenyl]-4-(3-dimethylamino-N-methylpropylamino)benzamide] | – |
| 192 to 193 | CCCS(=O)(=O)Nc1cccc(C(=O)Nc2cc(NC(=O)c3cccc(N4CCOCC4)c3)ccc2C)c1 [Example 62, N-[2-methyl-5-(3-morpholinobenzamido)phenyl]-3-(N-ethylmethanesulphonylamino)benzamide] | – |
